Results published in ChEMBL document CHEMBL4814075, “Novel Thienopyrimidines as Acetyl-CoA Carboxylase Inhibitors for Treating Liver Diseases” (ACS Med Chem Lett, 2021).

Target: Acetyl-CoA carboxylase 1 (Homo sapiens, UniProt Q13085)
Assay: Inhibition of ACC1 in human HepG2 cells assessed as lipid content using 13C-labelled acetate as substrate incubated for 1 hr followed by substrate addition and measured after 24 hrs by QTOF mass spectrometer
Assay type: cell-based

Structure (SMILES) | EC50 [nM]
COc1ccccc1[C@H](Cn1c(=O)n(C2(C(=O)NS(=O)(=O)C3(C)CC3)CC2)c(=O)c2c(C)c(-n3nccn3)sc21)O[C@@H]1C[C@H]2CC[C@@H](C1)O2 | 1
Cc1c(-n2nccn2)sc2c1c(=O)n(C1(C(=O)NS(=O)(=O)C3(C)CC3)CC1)c(=O)n2C[C@H](O[C@@H]1C[C@H]2CC[C@@H](C1)O2)c1cc(F)ccc1OC(F)F | 0.9
COc1ccc(F)cc1[C@H](Cn1c(=O)n(C(C)(C)C(=O)NS(=O)(=O)C2(C)CC2)c(=O)c2c(C)c(-n3nccn3)sc21)O[C@@H]1C[C@H]2CC[C@@H](C1)O2 | 0.3
COc1ccccc1[C@H](Cn1c(=O)n(C(C)(C)C(=O)NS(=O)(=O)C2(C)CC2)c(=O)c2c(C)c(-c3ncco3)sc21)O[C@@H]1C[C@H]2CC[C@@H](C1)O2 | 1
COc1ccccc1[C@H](Cn1c(=O)n(C(C)(C)C(=O)NS(=O)(=O)C2(C)CC2)c(=O)c2c(C)c(-n3nccn3)sc21)O[C@@H]1C[C@H]2CC[C@@H](C1)O2 | 1
COc1ccccc1[C@H](Cn1c(=O)n([C@H](C)C(=O)NS(=O)(=O)C2(C)CC2)c(=O)c2c(C)c(-c3ncco3)sc21)O[C@@H]1C[C@H]2CC[C@@H](C1)O2 | 1
